Reference: patent US20260315612A1, “Topoisomerase Inhibitors, Methods of Making, and Methods of Use Thereof” (NJ Bio, Inc., priority 2023, published 2026)

System: SKBR-3 cell line (human breast cancer)
Test: Cytotoxicity Assay (Cell titer glo, 72 h), SKBR-3
Format: cell-based
Details: for IC50: Homo sapiens, SK-BR-3, free payloads, 72 hours; for Normalized IC50 (PL IC50/DXD IC50): ratio of payload IC50 to DXD control IC50
Procedure: Day 1: 2,000 cells/well were plated and incubated at 37° C. overnight.
Day 2: Payload/ADC/vehicle control dilutions were made in respective media and added to cells. Volume added: 50 uL to each well. Starting treatment concentration was 1 mM for free payloads/1 μM for ADC's/10% for vehicle control and then diluted 10-fold down for a total of 11 treatment dilutions. Each concentration was analyzed in triplicates. Media-only wells were used as a control to calculate percent viability.
Day 5: Cell titer glow reagent (volume: 50 uL) was added to each well, the plate was shaken for 5 mins and the luminescence was recorded. Drug Treatment Time: 72 hours. Data Analysis: Percent viability was calculated by dividing the luminescence signal obtained for each treated well by the untreated well (media-only control) and multiplying by 100. Data was next transformed using X=Log (x) and then analyzed with nonlinear regression (curve fit), Dose Response inhibition−log (inhibitor) vs response (3 parameters) using PRISM software to determine the IC50 value.

Structure (SMILES) | IC50 [nM] | Normalized IC50 (PL IC50/DXD IC50)
CC[C@@]1(O)C(=O)OCc2c1cc1n(c2=O)Cc2c-1nc1cc(F)c(C)cc1c2Cn1cc(COC2CCCCO2)nn1 (stereo partly shown) [Payload 1] | 77.8 | 8.67
CC[C@@]1(O)C(=O)OCc2c1cc1n(c2=O)Cc2c-1nc1cc(F)c(C)cc1c2Cn1cc(CO)nn1 [Payload 2] | 80.9 | 9.01
CC[C@@]1(O)C(=O)OCc2c1cc1n(c2=O)Cc2c-1nc1cc(F)c(C)cc1c2Cn1nncc1CO [Payload 3] | 107 | 11.97
CC[C@@]1(O)C(=O)OCc2c1cc1n(c2=O)Cc2c-1nc1cc(F)c(C)cc1c2Cn1cc(CNC(=O)OC(C)(C)C)nn1 [Payload 4] | 126 | 14.03
CC[C@@]1(O)C(=O)OCc2c1cc1n(c2=O)Cc2c-1nc1cc(F)c(C)cc1c2Cn1cc(CN)nn1 [Payload 5] | 81.5 | 18.99
CC[C@@]1(O)C(=O)OCc2c1cc1n(c2=O)Cc2c-1nc1cc(F)c(C)cc1c2Cn1cc(CNC)nn1 [Payload 6] | 690 | 94.92
CC[C@@]1(O)C(=O)OCc2c1cc1n(c2=O)Cc2c-1nc1cc(F)c(C)cc1c2Cn1cc(CNC(=O)CO)nn1 [Payload 7] | 1830 | 203.99
CC[C@@]1(O)C(=O)OCc2c1cc1n(c2=O)Cc2c-1nc1cc(F)c(C)cc1c2Cn1nncc1CN [Payload 8] | 16.5 | 1.84
CC[C@@]1(O)C(=O)OCc2c1cc1n(c2=O)Cc2c-1nc1cc(F)c(C)cc1c2Cn1nncc1CNC [Payload 9] | 94.6 | 13.01
CC[C@@]1(O)C(=O)OCc2c1cc1n(c2=O)Cc2c-1nc1cc(F)c(C)cc1c2Cn1cc(C(C)O)nn1 (stereo partly shown) [Payload 11] | 194 | 45.22
CC[C@@]1(O)C(=O)OCc2c1cc1n(c2=O)Cc2c-1nc1cc(F)c(C)cc1c2Cn1nnc(CO)c1CO [Payload 12] | 374 | 41.69
CC[C@@]1(O)C(=O)OCc2c1cc1n(c2=O)Cc2c-1nc1cc(F)c(C)cc1c2Cn1cc(-c2ccc(N)cc2)nn1 [Payload 13] | 30.8 | 6.84
CC[C@@]1(O)C(=O)OCc2c1cc1n(c2=O)Cc2c-1nc1cc(F)c(C)cc1c2Cn1cc(-c2ccc(NC(=O)CO)cc2)nn1 [Payload 15] | 25.8 | 27.79
CC[C@@]1(O)C(=O)OCc2c1cc1n(c2=O)Cc2c-1nc1cc(F)c(C)cc1c2Cn1cc(-c2cccc(N)c2)nn1 [Payload 16] | 38.5 | 8.55
CC[C@@]1(O)C(=O)OCc2c1cc1n(c2=O)Cc2c-1nc1cc(F)c(C)cc1c2Cn1cc(-c2ccccc2N)nn1 [Payload 19] | 22.4 | 4.96
CC[C@@]1(O)C(=O)OCc2c1cc1n(c2=O)Cc2c-1nc1cc(F)c(C)cc1c2Cn1cc(CN2CCNCC2)nn1 [Payload 22] | 102 | 20.02
CC[C@@]1(O)C(=O)OCc2c1cc1n(c2=O)Cc2c-1nc1cc(F)c(C)cc1c2Cn1cc(CN2CCC(CO)CC2)nn1 [Payload 23] | 1250 | 199.52
CC[C@@]1(O)C(=O)OCc2c1cc1n(c2=O)Cc2c-1nc1cc(F)c(C)cc1c2Cn1cc(CNC(=O)CN)nn1 [Payload 32] | 336 | 21.94
CC[C@@]1(O)C(=O)OCc2c1cc1n(c2=O)Cc2c-1nc1cc(F)c(C)cc1c2Cn1cc(CN2CCCC(N)C2)nn1 (stereo partly shown) [Payload 33] | 32.9 | 22.96
CC[C@@]1(O)C(=O)OCc2c1cc1n(c2=O)Cc2c-1nc1cc(F)c(C)cc1c2Cn1cc(CCN)nn1 [Payload 36] | 1010 | 203.63
CC[C@@]1(O)C(=O)OCc2c1cc1n(c2=O)Cc2c-1nc1cc(F)c(C)cc1c2Cn1cc(CCNC)nn1 [Payload 37] | 50.8 | 3.32
CC[C@@]1(O)C(=O)OCc2c1cc1n(c2=O)Cc2c-1nc1cc(F)c(C)cc1c2Cn1cc(CCNC(=O)CO)nn1 [Payload 38] | 34.6 | 37.23

Structure (SMILES) | IC50 [nM] | Normalized IC50 (PL IC50/DXD IC50)
CC[C@@]1(O)C(=O)OCc2c1cc1n(c2=O)Cc2c-1nc1cc(F)c(C)cc1c2Cn1cc(CCO)nn1 [Payload 39] | 4.63 | 0.92
CC[C@@]1(O)C(=O)OCc2c1cc1n(c2=O)Cc2c-1nc1cc(F)c(C)cc1c2Cn1cc(-c2cc(F)cnc2N)nn1 [Payload 46] | 3.68 | 0.24
CC[C@@]1(O)C(=O)OCc2c1cc1n(c2=O)Cc2c-1nc1cc(F)c(C)cc1c2Cn1cc(C2(N)CC2)nn1 [Payload 47] | 33.2 | 4.86
CC[C@@]1(O)C(=O)OCc2c1cc1n(c2=O)Cc2c-1nc1cc(F)c(C)cc1c2Cn1cc(-c2cccc(N)n2)nn1 [Payload 48] | 40.2 | 
CC[C@@]1(O)C(=O)OCc2c1cc1n(c2=O)Cc2c-1nc1cc(F)c(C)cc1c2Cn1cc(-c2cccnc2N)nn1 [Payload 49] | 8.14 | 1.30
CC[C@@]1(O)C(=O)OCc2c1cc1n(c2=O)Cc2c-1nc1cc(F)c(C)cc1c2Cn1cc(C(C)N)nn1 (stereo partly shown) [Payload 50] | 18.6 | 3.72
CC[C@@]1(O)C(=O)OCc2c1cc1n(c2=O)Cc2c-1nc1cc(F)c(C)cc1c2Cn1cc(C(C)(C)N)nn1 [Payload 51] | 15.3 | 3.05
CC[C@@]1(O)C(=O)OCc2c1cc1n(c2=O)Cc2c-1nc1cc(F)c(C)cc1c2Cn1cc(-c2ccc(N)nc2)nn1 [Payload 52] | 18 | 2.88
CC[C@@]1(O)C(=O)OCc2c1cc1n(c2=O)Cc2c-1nc1cc(F)c(C)cc1c2Cn1cc(CCCN)nn1 [Payload 53] | 18 | 3.60
CC[C@@]1(O)C(=O)OCc2c1cc1n(c2=O)Cc2c-1nc1cc(F)c(C)cc1c2Cn1cc(CN2CCCCC2CO)nn1 (stereo partly shown) [Payload 54] | 8.94 | 6.24
CC[C@@]1(O)C(=O)OCc2c1cc1n(c2=O)Cc2c-1nc1cc(F)c(C)cc1c2Cn1cc(COCCN)nn1 [Payload 55] | 25.2 | 17.60
CC[C@@]1(O)C(=O)OCc2c1cc1n(c2=O)Cc2c-1nc1cc(F)c(C)cc1c2Cn1cc(CN2CCCC(CO)C2)nn1 (stereo partly shown) [Payload 56] | 10.1 | 7.05
CC[C@@]1(O)C(=O)OCc2c1cc1n(c2=O)Cc2c-1nc1cc(F)c(C)cc1c2Cn1cc(C2CCCN2)nn1 (stereo partly shown) [Payload 57] | 18.3 | 12.80
CC[C@@]1(O)C(=O)OCc2c1cc1n(c2=O)Cc2c-1nc1cc(F)c(C)cc1c2Cn1cc(CN2CCOC(CN)C2)nn1 (stereo partly shown) [Payload 58] | 30.5 | 23.79
CC[C@@]1(O)C(=O)OCc2c1cc1n(c2=O)Cc2c-1nc1cc(F)c(C)cc1c2Cn1cc(CCCO)nn1 [Payload 59] | 4.03 | 4.84
CC[C@@]1(O)C(=O)OCc2c1cc1n(c2=O)Cc2c-1nc1cc(F)c(C)cc1c2Cn1cc(CN2CCN(C(=O)CO)CC2)nn1 [Payload 60] | 284 | 338.2
CC[C@@]1(O)C(=O)OCc2c1cc1n(c2=O)Cc2c-1nc1cc(F)c(C)cc1c2Cn1cc(C2CCCN2C(=O)CO)nn1 (stereo partly shown) [Payload 61] | 211 | 177.62
CC[C@@]1(O)C(=O)OCc2c1cc1n(c2=O)Cc2c-1nc1cc(F)c(C)cc1c2Cn1cc(CN2CCOC(CNC(=O)CO)C2)nn1 (stereo partly shown) [Payload 62] | 2040 | 1714.88
CC[C@@]1(O)C(=O)OCc2c1cc1n(c2=O)Cc2c-1nc1cc(F)c(C)cc1c2Cn1cc(C2(NC(=O)CO)CC2)nn1 [Payload 63] | 41 | 44.21
CC[C@@]1(O)C(=O)OCc2c1cc1n(c2=O)Cc2c-1nc1cc(F)c(C)cc1c2Cn1cc(C(C)NC(=O)CO)nn1 (stereo partly shown) [Payload 64] | 20.6 | 22.21
CC[C@@]1(O)C(=O)OCc2c1cc1n(c2=O)Cc2c-1nc1cc(F)c(C)cc1c2Cn1nncc1CCO [Payload 65] | 134 | 18.50
